Experimental data as given in patent US20250339408A1, “TREATMENT AND PREVENTION OF BASAL CELL CARCINOMA WITH TOPICAL COMPOSITION COMPRISING PATIDEGIB” (Sol-Gel Technologies Ltd., priority 2023, published 2025).

Tested on: basal cell carcinoma (BCC) lesions on the face
Test: Randomized, double-blind, vehicle-controlled study of Patidegib Topical Gel, 2% in Gorlin syndrome participants with PTCH1 mutation (Example 2)
Type: in vivo, human
Text: The term “nSEB” refers to BCCs with a longest diameter of ≥5 mm that: • a. were not surgically eligible BCCs (SEBs) at baseline; • b. have grown by ≥2 mm in longest diameter from baseline; and • c. have been verified histologically.
The term “SEB” refers to surgically eligible BCCs with a longest diameter of ≥5 mm.
The term “resolved SEB lesions” refers to BCCs lesions which no longer requires a surgical removal treatment. In another embodiment the term “resolved SEB lesions” refers to BCCs lesions with a diameter <5 mm or the BCC lesions are completely disappeared.
A randomized, double-blind, stratified, vehicle-controlled study was done, measuring the efficacy and safety of Patidegib Topical Gel, 2%, applied topically twice daily to the face of adult participants with Gorlin syndrome. The Participants were required to apply the investigational product for 12 months. The primary endpoint is a comparison between the two treatment—Patidegib Topical Gel, 2%, versus Vehicle, resulted the of the number of new BCCs that develop over the 12 month period.
Participants will be randomized to receive Patidegib Topical Gel, 2%. The Patidegib Topical Gel, 2% will be dispensed to participants at each study visit and applied topically twice daily to the face.
Participants will be randomized to receive Vehicle. The Patidegib Topical Gel, Vehicle will be dispensed to participants at each study visit and applied topically twice daily to the face.
• 1. The participant must be age at least 18 years of age at the Screening Visit. • 2. The participant must provide written informed consent prior to any study procedures. • 3. The participant must meet diagnostic criteria for the basal cell nevus (Gorlin) syndrome including PTCH1 gene mutation, or at least 6 histologically confirmed facial BCC lesions at Baseline and PTCH1 gene mutation. • 4. The participant is willing to have blood collected to measure circulating drug levels. • 5. The participant is willing to abstain from application of a non-study topical medication (prescription or over the counter) to facial skin for the duration of the trial except as prescribed by the Investigator. Moisturizers and emollients are allowed. Participant will be encouraged to use their preferred sunscreen with a sun protector factor (SPF) of at least 30 daily on all exposed skin sites. • 6. If the participant is a woman of childbearing potential (WOCBP), they must be willing to use complete abstinence from sexual intercourse and/or they and their partner must be willing to use at least 2 highly-effective forms of birth control starting prior to Baseline, through the duration of the study, and for 12 months after last application of IP. • 7. If the participant is a male with a female sex partner who is a WOCBP, the participant must be willing to use condoms, even after a vasectomy, starting prior to Baseline, through the duration of the study, and for at least 8 months after the last application of IP. • 8. The participant is willing for all facial BCCs to be evaluated and treatment recommendations made only by the Investigator. • 9. The participant is willing to forego treatment of facial BCCs with anything other than the study IP except when the Investigator believes that delay of treatment of a facial BCC potentially might compromise the health of the subject. During the trial the only allowed form of treatment is surgical. Non-facial BCCs may be removed at the discretion of the Investigator or Primary Skin Care Physician (PSCP).
• 1. The subject has previously participated in a clinical trial evaluating patidegib topical gel. • 2. The participant has used topical treatment to the face or systemic therapies that might interfere with the evaluation of the study IP. Among these are use of the following: • a. 5-fluorouracil, imiquimod, diclofenac, or Ingenol mebutate (except as topical treatment to discrete non-facial BCCs) systemically or topically to the skin within the 2 months prior to the Screening Visit. • b. […]

[1] = PTCH1 mutation, baseline total facial BCC lesions at least 6, gel 2% twice daily to face, month 3
[2] = PTCH1 mutation, baseline total facial BCC lesions at least 6, gel 2% twice daily to face, month 6
[3] = PTCH1 mutation, baseline total facial BCC lesions at least 6, gel 2% twice daily to face, month 9
[4] = PTCH1 mutation, baseline total facial BCC lesions at least 6, gel 2% twice daily to face, month 12
[5] = PTCH1 mutation, baseline total facial BCC lesions at least 8, gel 2% twice daily to face, month 3
[6] = PTCH1 mutation, baseline total facial BCC lesions at least 8, gel 2% twice daily to face, month 6
[7] = PTCH1 mutation, baseline total facial BCC lesions at least 8, gel 2% twice daily to face, month 9
[8] = PTCH1 mutation, baseline total facial BCC lesions at least 8, gel 2% twice daily to face, month 12
[9] = PTCH1 mutation, baseline total facial BCC lesions at least 10, gel 2% twice daily to face, month 3
[10] = PTCH1 mutation, baseline total facial BCC lesions at least 10, gel 2% twice daily to face, month 6
[11] = PTCH1 mutation, baseline total facial BCC lesions at least 10, gel 2% twice daily to face, month 9
[12] = PTCH1 mutation, baseline total facial BCC lesions at least 10, gel 2% twice daily to face, month 12
[13] = PTCH1 mutation, gel 2% twice daily to face
[14] = PTCH1 mutation, gel 2% twice daily to face, month 3
[15] = PTCH1 mutation, gel 2% twice daily to face, month 6
[16] = PTCH1 mutation, gel 2% twice daily to face, month 9
[17] = PTCH1 mutation, gel 2% twice daily to face, month 12
[18] = per subject, PTCH1 mutation, by month 12
[19] = per subject, more than 6 BCC lesions at baseline, Baseline to month 12

In the case of `CC1=C2C[C@H]3[C@@H](CC[C@@H]4C[C@H](NS(C)(=O)=O)CC[C@@]43C)[C@@H]2CC[C@@]2(C1)O[C@@H]1C[C@H](C)CN[C@H]1[C@H]2C` [Patidegib], the “Overall efficacy in treating or preventing BCC lesions (in words)” value (Gorlin syndrome with genetic mutation PTCH1) is reported as “effective in treating or preventing BCC lesions”, the “Number of qualifying nSEBs, observed, Mean” value (“Number of qualifying nSEBs” below) (PTCH1 mutation, baseline total BCC facial lesions at least 6, gel 2% twice daily to face, month 3) is reported as 0.28 and the “Number of qualifying nSEBs” value (PTCH1 mutation, baseline total BCC facial lesions at least 6, gel 2% twice daily to face, month 6) is reported as 0.42. For the same compound, the “Number of qualifying nSEBs” value (PTCH1 mutation, baseline total BCC facial lesions at least 6, gel 2% twice daily to face, month 9) was 0.83, the “Number of qualifying nSEBs” value (PTCH1 mutation, baseline total BCC facial lesions at least 6, gel 2% twice daily to face, month 12) was 0.47 and the “Number of new BCCs excluding no longer suspicious BCCs, observed, Mean” value [1] was 0.80. For the same compound, the “Proportion of SEBs clinically resolved, observed, Mean” value (“Proportion” for short) [1] was 6.61, the “Number of new BCCs excluding no longer suspicious BCCs, observed, Mean” value [2] was 1.68 and the “Proportion” value [2] was 3.11. The “Number of new BCCs excluding no longer suspicious BCCs, observed, Mean” value [3] was 2.49, the “Proportion” value [3] was 10.22 and the “Number of new BCCs excluding no longer suspicious BCCs, observed, Mean” value [4] was 2.78. For the same compound, the “Proportion” value [4] was 18.79, the “Number of new BCCs excluding no longer suspicious BCCs, observed, Mean” value [5] was 0.94 and the “Number of qualifying nSEBs” value [5] was 0.31. The “Proportion” value [5] was 5.98, the “Number of new BCCs excluding no longer suspicious BCCs, observed, Mean” value [6] was 1.96 and the “Number of qualifying nSEBs” value [6] was 0.52. The “Proportion” value [6] was 1.30, the “Number of new BCCs excluding no longer suspicious BCCs, observed, Mean” value [7] was 2.71 and the “Number of qualifying nSEBs” value [7] was 0.96. The “Proportion” value [7] was 8.73, the “Number of new BCCs excluding no longer suspicious BCCs, observed, Mean” value [8] was 2.96 and the “Number of qualifying nSEBs” value [8] was 0.52. For the same compound, the “Proportion” value [8] was 12.84, the “Number of new BCCs excluding no longer suspicious BCCs, observed, Mean” value [9] was 1.00 and the “Number of qualifying nSEBs” value [9] was 0.41. The “Proportion” value [9] was 8.50, the “Number of new BCCs excluding no longer suspicious BCCs, observed, Mean” value [10] was 1.93 and the “Number of qualifying nSEBs” value [10] was 0.64. The “Proportion” value [10] was 2.05, the “Number of new BCCs excluding no longer suspicious BCCs, observed, Mean” value [11] was 2.56 and the “Number of qualifying nSEBs” value [11] was 1.00. The “Proportion” value [11] was 13.39, the “Number of new BCCs excluding no longer suspicious BCCs, observed, Mean” value [12] was 2.88 and the “Number of qualifying nSEBs” value [12] was 0.56. The “Proportion” value [12] was 16.89, the “LS Mean for new BCCs per year (Std Err)” value [13] was 2.83 and the “Predicted new BCCs per year using observed covariates (95% CI)” value [13] was 3.09. For the same compound, the “Number of new BCCs excluding no longer suspicious BCCs, observed, Mean” value [14] was 0.69, the “Number of qualifying nSEBs” value [14] was 0.21 and the “Proportion” value [14] was 5.42. For the same compound, the “Number of new BCCs excluding no longer suspicious BCCs, observed, Mean” value [15] was 1.59, the “Number of qualifying nSEBs” value [15] was 0.38 and the “Proportion” value [15] was 2.76. For the same compound, the “Number of new BCCs excluding no longer suspicious BCCs, observed, Mean” value [16] was 2.17, the “Number of qualifying nSEBs” value [16] was 0.70 and the “Proportion” value [16] was 8.11. The “Number of new BCCs excluding no longer suspicious BCCs, observed, Mean” value [17] was 2.61, the “Number of qualifying nSEBs” value [17] was 0.50 and the “Proportion” value [17] was 14.68. For the same compound, the “Total new BCCs” value (all subjects of the arm, PTCH1 mutation, by month 12) was 114, the “Total BCCs surgeries from Baseline to month 12” value (all subjects of the arm, more than 6 BCC lesions at baseline) was 14 and the “Rate-ratio: Patidegib/Vehicle (Std Err)” value (new BCCs per year, PTCH1 mutation) was 0.91. For the same compound, the “Number of new BCCs by Month 12 - Max” value [18] was 8, the “Number of new BCCs by Month 12 - Median” value [18] was 2.0 and the “Number of new BCCs by Month 12 - Min” value [18] was 0. The “Number of new BCCs by Month 12 - Q1” value [18] was 1.0, the “Number of new BCCs by Month 12 - Q3” value [18] was 5.0 and the “Number of new BCCs by Month 12 - Mean (SD)” value (per subject, PTCH1 mutation, gel 2% twice daily to face, by month 12) was 3.08. The “Number of BCCs surgeries - Max” value [19] was 5, the “Number of BCCs surgeries - Median” value [19] was 0.0 and the “Number of BCCs surgeries - Min” value [19] was 0. The “Number of BCCs surgeries - Q1” value [19] was 0, the “Number of BCCs surgeries - Q3” value [19] was 1 and the “Number of BCCs surgeries - Mean (SD)” value (per subject, more than 6 BCC lesions at baseline, Baseline to month 12, gel 2% twice daily to face) was 0.6 (1.47).
